# Test: Cooling effect/cooling potential: heat of fusion by Differential Scanning Calorimeter
# Assay type: physicochemical
# Conditions: Pyris 1 DSC, sample cooled to −10° C., heated 10° C. per minute up to 50° C., area under the peak
# Experimental: Four samples of the composition are prepared with 10%, 20% and 40% of the stearyl heptanoate in three samples and 40% Marrix (C12-C15 Alkyl Furmurate) in a fourth sample. Each sample is first weighed and subsequently cooled to −10° C. A Calorimeter (Pyris 1 Differential Scanning Calorimeter from Perkin Elmer) is used to apply heat to each sample at one minute increments, 10° C. per minute up to 50° C. The Calorimeter measures the heat of the sample at each increment. The resulting readings of heat are plotted against time for each sample. The Calorimeter measures the area under the peak on the plot to calculate the Heat of fusion (J/g) for each sample. The heat of fusion for the sample is the energy required to melt the sample from a solid form to a liquid form. The heat of fusion for the sample identifies the amount of energy the sample can absorb. Therefore, to correlate to the cooling on the skin, the higher the heat of fusion of a sample/material, the more heat the sample/material will absorb from the skin upon application to correspondingly create a cooling sensation on the skin.
smiles,measurement,setting,value
"CCCCCCCCCCCCCCCCCCOC(=O)CCCCCC [Active alone, Stearyl Heptanoate]",(ΔH) Heat of fusion,,174.3 J/g
same,(ΔH) Heat of fusion,listed as active alone,174.3 J/g
same,(ΔH) Heat of fusion,listed as stearyl heptanoate,74.5 J/g

# — patent publication US20080188560A1, “Cosmetic Compositions and Methods For Sensory Cooling” (priority 2004, published 2008)
